For assay [1], the system named is human melanoma cell line (RPMI-7951). As to the kind of experiment: RPMI-7951 melanoma growth and metastasis in nude mice, topical treatment. The assay is classed as in vivo. As to conditions: topically twice a day, emulsion of 80 mg/mL; RPMI-7951 intradermal in nude mice. The method, then: Similar studies were also performed with a human melanoma cell line (RPMI-7951) grown in nude mice. Mice injected with RPMI-7951 cell line intradermally developed tumors. When the mice were treated topically, twice a day, with an emulsion of 80 mg/mL of the phosphonate compound of the formula shown above (compound VIII), the growth and metastasis of tumors were retarded by approximately 60%.

In assay [2] the test system is 2008 (human ovarian cancer). As to the kind of experiment: cytotoxicity IC50 (3H-thymidine uptake, colonogenic cell survival and MTT assays). The assay is classed as cell-based. From the text:
(§1) A combination of ^3 H-Thymidine incorporation assay, colonogenic cell survival assay and MTT assay was used to determine cytotoxicity data of phosphonates in several mouse and human tumor cell lines.
For orientation: Tetrazolium dyes change colour on reduction, which living cells bring about.

The test system of assay [3] is HCT-116 (human rectal cancer). Described as above. It is filed as cell-based.
Description: as §1

The subject of assay [4] is HT29 (human colon cancer). The assay is described as above. As to conditions: HT-29. It is filed as cell-based.
Description: as §1

In assay [5] the test system is L1210 (mouse B-cell lymphoma). The assay is described as above. It is filed as cell-based.
Description: as §1

Assay [6] deals with LLC (mouse Lewis lung carcinoma). The assay is described as above. It is filed as cell-based.
Description: as §1

Assay [7] concerns MCF-7 (human breast cancer). The assay is described as above. It is filed as cell-based. To be noted: MCF7.
Description: as §1

Assay [8] concerns MeWo (human melanoma cancer). The assay is described as above. It is filed as cell-based.
Description: as §1

Assay [9] relates to P388 (mouse monocytic leukemia). Described as above. The assay is classed as cell-based.
Description: as §1

For assay [10], the system named is P388 DR (drug resistant P388). The assay is described as above. It is filed as cell-based. As to conditions: Mus musculus.
Description: as §1

Assay [11] relates to RPMI (advanced human melanoma). The assay is described as above. It is filed as cell-based.
Description: as §1

The subject of assay [12] is WEHI-3B (mouse granulocytic leukemia). The assay is described as above. It is filed as cell-based. As to conditions: WEHI3B.
Description: as §1

The source of these data is patent publication US5506217A, “Phosphonates as anti-cancer agents” (The University of British Columbia, priority 1994, dated 1996).

Broadly, the IC50 is the concentration at which inhibition is half-maximal. Take `CCCCCCCCCCCCCCCCOCC(CCP(=O)([O-])OCC[N+](C)(C)C)OC` (stereo not drawn) [compound VIII]: the “retardation of growth and metastasis of tumors” value in [1] is “approximately 60%”. The half-inhibitory concentration (IC50) is 27.8 µM in assay [2]; 12 µM in assay [3]; 9 µM in assay [4]; 5 µM in [5]; 10.6 µM in assay [6]; 35.3 µM in assay [7]. Further, the IC50 turned out to be 15.7 µM in assay [8]; 4.5 µM in [9]; 5 µM in assay [10]; 9 µM in [11]; 2.5 µM in [12].
